From US20100210567A1, “USE OF A TUFTSIN AS A THERAPEUTIC AGENT” (priority 2007, published 2010)
Residues, ends and D or L forms follow the SMILES beside them.

Assays:
MRSA = conditions: 5 micrograms per ml
Streptococcus pneumoniae = type: cell-based; conditions: 5 micrograms per ml
in vitro [1] = conditions: human, CEM-SS cells
Pseudomonas aeruginosa = type: cell-based; conditions: 5 micrograms per ml
in vitro [2] = conditions: human
Protocol: HepG2-2.2.15 is a stable cell line containing the hepatitis B virus (HBV) ayw strain genome (ATCC Cat. No. CRL-11997). […] After 16-24 hours the confluent monolayer of HepG2-2.2.15 cells was washed and the medium was replaced with complete medium containing test peptide—10 micrograms per ml—in duplicate. […] Three days later the culture medium was replaced with fresh medium containing the peptide. Six days following the initial administration of the peptide, the cell culture supernatants was collected, treated with pronase and DNAse and then used in a real-time quantitative TaqMan PCR assay. The PCR-amplified HBV DNA was detected in real-time by monitoring increases in fluorescence signals that result from the exonucleolytic degradation of a quenched fluorescence probe molecule that hybridizes to the amplified HBV DNA. For each PCR amplification, a standard curve was simultaneously generated using dilutions of purified HBV DNA. Antiviral activity was calculated from the reduction in HBV DNA levels (% virus control). A novel dye uptake assay was then employed to measure cell viability, which is used to calculate toxicity (% cell control).

in vitro [3] = type: cell-based; conditions: human, MRC-5 cells

C[C@@H](O)[C@H](N)C(=O)N[C@@H](CCCCN)C(=O)N1CCC[C@H]1C(=O)N[C@@H](CCCNC(=N)N)C(=O)O [Tuftsin, Thr-Lys-Pro-Arg-OH] (H-TKPR-OH)
0.0%: % inhibition (MRSA) | % inhibition (Streptococcus pneumoniae) | % inhibition (Pseudomonas aeruginosa)
100%: viability at 10 micrograms per ml (in vitro [1]) | viability at 144 h, 10 micrograms per ml (in vitro [2]) | viability at 144 h (in vitro [3])
